Laboratory results: EP3046573B1, “AMYLIN ANALOGUES” (Zealand Pharma A/S, priority 2013, dated 2015)
Read-outs that look alike come from different tables or passages of the source. Numbered stars: 1 amine (or outer) side, 2 acyl side, 3 side chain; on linkers, the order of the positions; unused ones are H or OH. Bridge positions count the residues as written; N and C are the ends. Square brackets hold non-standard residues; d marks the D form. Peptide text beside a SMILES is read from it. * marks the point of attachment. C20 diacid = O=C(O)CCCCCCCCCCCCCCCCCCC(=O)*; γGlu = O=C(O)[C@H](CCC(=O)[*:2])N[*:1]; NMeI = CC[C@H](C)[C@H](NC)C(=O)O; Sar = CNCC(=O)O

Tests used:
[1] = Solubility assessment (turbidity absorbance at 325 nm); type: physicochemical; conditions: stock 2 mg/ml diluted 1:1, ambient temperature (typically 25°C), n=1; for Solubility, Acetate buffer pH 4: 100 mM acetate buffer pH 4.0; for Solubility, Acetate buffer pH 5: 100 mM acetate buffer pH 5.0; for Solubility, Histidine buffer pH 6: 100 mM histidine buffer pH 6.0; for Solubility, Histidine buffer pH 7: 100 mM histidine buffer pH 7.0; for Solubility, Phosphate buffer pH 6: 100 mM phosphate buffer pH 6.0; for Solubility, Phosphate buffer pH 7: 100 mM phosphate buffer pH 7.0; for Solubility, Phosphate buffer pH 7.5: 100 mM phosphate buffer pH7.5
Summary of the method: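 Peptide stock (2 mg/ml, water pH 2.5) diluted 1:1 into 100 mM acetate (pH 4.0, 5.0), histidine (pH 6.0, 7.0) or phosphate (pH 6.0–7.5) buffer; absorbance at 325 nm read at about 25°C, n=1. A325 ≤ 0.02 taken as solubility ≥ 1 mg/ml.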

[2] = molecular target: T1, human calcitonin receptor (hCTR2) (Homo sapiens, UniProt P30988); experiment: hCTR2 assay: induction of cAMP (AlphaScreen cAMP Assay kit) in COS7 cells expressing hCTR2; type: cell-based
T1 construct: expressed in transfected cells
T1 sequence (P30988 25-474): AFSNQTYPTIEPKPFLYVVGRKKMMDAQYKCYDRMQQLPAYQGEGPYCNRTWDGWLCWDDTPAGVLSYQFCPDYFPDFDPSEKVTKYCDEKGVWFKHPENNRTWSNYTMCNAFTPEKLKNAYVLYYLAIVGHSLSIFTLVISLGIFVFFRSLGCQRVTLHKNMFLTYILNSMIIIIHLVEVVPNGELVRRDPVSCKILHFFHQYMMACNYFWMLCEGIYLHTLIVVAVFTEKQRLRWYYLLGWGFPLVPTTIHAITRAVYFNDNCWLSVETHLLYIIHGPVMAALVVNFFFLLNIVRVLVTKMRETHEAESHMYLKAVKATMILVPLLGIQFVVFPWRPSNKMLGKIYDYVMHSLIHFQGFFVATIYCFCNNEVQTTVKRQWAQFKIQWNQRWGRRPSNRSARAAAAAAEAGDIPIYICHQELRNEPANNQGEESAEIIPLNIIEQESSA
Summary of the method: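 Stable RAMP-naive COS7 clone expressing hCTR2 was stimulated with increasing peptide concentrations in Tyrode buffer (pH 7.4) with 100 µM IBMX and 0.1% casein for 15 min at 37° C. Cells were lysed and cAMP measured by AlphaScreen. EC50 and efficacy relative to pramlintide came from 4PL curve fits.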

[3] = cAMP induction in COS7 cells expressing hCTR2, average of a minimum of 3 determinations, read-out: hCTR2 EC50

EC50 [2, 3]	SMILES	Solubility, Acetate buffer pH 4 [1]	Solubility, Acetate buffer pH 5 [1]	Solubility, Histidine buffer pH 6 [1]	Solubility, Histidine buffer pH 7 [1]	Solubility, Phosphate buffer pH 6 [1]	Solubility, Phosphate buffer pH 7 [1]	Solubility, Phosphate buffer pH 7.5 [1]	EC50 [2]
	CC[C@H](C)[C@@H](C(=O)N[C@@H](CC(C)C)C(=O)N[C@@H](CO)C(=O)N[C@H](C(=O)N[C@@H](CC(N)=O)C(=O)N[C@H](C(=O)NCC(=O)N[C@@H](CO)C(=O)N[C@@H](CC(N)=O)C(=O)N[C@H](C(=O)N1CCC[C@H]1C(N)=O)[C@@H](C)O)C(C)C)[C@@H](C)O)N(C)C(=O)[C@H](C)NC(=O)CN(C)C(=O)[C@H](Cc1ccccc1)NC(=O)[C@H](CC(N)=O)NC(=O)[C@H](CC(N)=O)NC(=O)[C@H](CO)NC(=O)[C@H](CO)NC(=O)[C@H](Cc1c[nH]cn1)NC(=O)[C@H](Cc1c[nH]cn1)NC(=O)[C@H](CC(C)C)NC(=O)[C@H](Cc1ccccc1)NC(=O)[C@H](CCC(=O)O)NC(=O)[C@H](C)NC(=O)[C@H](CC(C)C)NC(=O)[C@H](CCCNC(=N)N)NC(=O)[C@H](CCC(N)=O)NC(=O)[C@@H](NC(=O)[C@H](C)NC(=O)[C@@H]1CSSC[C@H](NC(=O)[C@H](CCCNC(=N)N)NC(=O)CC[C@H](NC(=O)CCCCCCCCCCCCCCCCCCC(=O)O)C(=O)O)C(=O)N[C@@H](CC(N)=O)C(=O)N[C@@H]([C@@H](C)O)C(=O)N[C@@H](C)C(=O)N[C@@H]([C@@H](C)O)C(=O)N1)[C@@H](C)O [Compound 25, [19CD]-isoGlu-RC()NTATC()ATQRLAEFLHHSSNNF-Gly(Me)-A-Ile(Me)-LSTNVGSNTP-NH2] ({C20 diacid-γGlu}-RCNTATCATQRLAEFLHHSSNNF[Sar]A[NMeI]LSTNVGSNTP-NH2; disulfide 2-7)	SS (SS indicates solubility ≥ 1mg/ml)	SS (SS indicates solubility ≥ 1mg/ml)	SS (SS indicates solubility ≥ 1mg/ml)	SS (SS indicates solubility ≥ 1mg/ml)	SS (SS indicates solubility ≥ 1mg/ml)	SS (SS indicates solubility ≥ 1mg/ml)	SS (SS indicates solubility ≥ 1mg/ml)	0.1 nM
0.11 nM	CC[C@H](C)[C@@H](C(=O)N[C@@H](CC(C)C)C(=O)N[C@@H](CO)C(=O)N[C@H](C(=O)N[C@@H](CC(N)=O)C(=O)N[C@H](C(=O)NCC(=O)N[C@@H](CO)C(=O)N[C@@H](CC(N)=O)C(=O)N[C@H](C(=O)N1CCC[C@H]1C(N)=O)[C@@H](C)O)C(C)C)[C@@H](C)O)N(C)C(=O)CN(C)C(=O)[C@H](Cc1ccccc1)NC(=O)[C@H](CC(N)=O)NC(=O)[C@H](CC(N)=O)NC(=O)[C@H](CO)NC(=O)[C@H](CO)NC(=O)[C@H](Cc1c[nH]cn1)NC(=O)[C@H](Cc1c[nH]cn1)NC(=O)[C@H](CC(C)C)NC(=O)[C@H](Cc1ccccc1)NC(=O)[C@H](CCC(=O)O)NC(=O)[C@H](C)NC(=O)[C@H](CC(C)C)NC(=O)[C@H](CCCNC(=N)N)NC(=O)[C@H](CCC(N)=O)NC(=O)[C@@H](NC(=O)[C@H](C)NC(=O)[C@@H]1CSSC[C@H](NC(=O)[C@H](CCCNC(=N)N)NC(=O)CC[C@H](NC(=O)CCCCCCCCCCCCCCCCCCC(=O)O)C(=O)O)C(=O)N[C@@H](CC(N)=O)C(=O)N[C@@H]([C@@H](C)O)C(=O)N[C@@H](C)C(=O)N[C@@H]([C@@H](C)O)C(=O)N1)[C@@H](C)O [Compound 26, [19CD]-isoGlu-RC()NTATC()ATQRLAEFLHHSSNNF-Gly(Me)-Ile(Me)-LSTNVGSNTP-NH2] ({C20 diacid-γGlu}-RCNTATCATQRLAEFLHHSSNNF[Sar][NMeI]LSTNVGSNTP-NH2; disulfide 2-7)	SS (SS indicates solubility ≥ 1mg/ml)	SS (SS indicates solubility ≥ 1mg/ml)	SS (SS indicates solubility ≥ 1mg/ml)	SS (SS indicates solubility ≥ 1mg/ml)	SS (SS indicates solubility ≥ 1mg/ml)	SS (SS indicates solubility ≥ 1mg/ml)	SS (SS indicates solubility ≥ 1mg/ml)	
	CC[C@@H](C)[C@@H](NC(=O)[C@H](C)NC(=O)CN(C)C(=O)[C@H](Cc1ccccc1)NC(=O)[C@H](CC(N)=O)NC(=O)[C@H](CC(N)=O)NC(=O)[C@H](CO)NC(=O)[C@H](CO)NC(=O)[C@H](Cc1c[nH]cn1)NC(=O)[C@H](Cc1c[nH]cn1)NC(=O)[C@H](CC(C)C)NC(=O)[C@H](Cc1ccccc1)NC(=O)[C@H](CCC(=O)O)NC(=O)[C@H](C)NC(=O)[C@H](CC(C)C)NC(=O)[C@H](CCCNC(=N)N)NC(=O)[C@H](CCC(N)=O)NC(=O)[C@@H](NC(=O)[C@H](C)NC(=O)[C@@H]1CSSC[C@H](NC(=O)[C@H](CCCNC(=N)N)NC(=O)CC[C@H](NC(=O)CCCCCCCCCCCCCCCCCCC(=O)O)C(=O)O)C(=O)N[C@@H](CC(N)=O)C(=O)N[C@@H]([C@@H](C)O)C(=O)N[C@@H](C)C(=O)N[C@@H]([C@@H](C)O)C(=O)N1)[C@@H](C)O)C(=O)N[C@@H](CC(C)C)C(=O)N[C@@H](CO)C(=O)N[C@@H](CO)C(=O)N[C@H](C(=O)N[C@@H](CC(N)=O)C(=O)N[C@H](C(=O)NCC(=O)N[C@@H](CO)C(=O)N[C@@H](CC(N)=O)C(=O)N[C@H](C(=O)N1CCC[C@H]1C(N)=O)[C@@H](C)O)C(C)C)[C@@H](C)O [Compound 28, [19CD]-isoGlu-RC()NTATC()ATQRLAEFLHHSSNNF-Gly(Me)-A-DIle-LSSTNVGSNTP-NH2] ({C20 diacid-γGlu}-RCNTATCATQRLAEFLHHSSNNF[Sar]A[dI]LSSTNVGSNTP-NH2; disulfide 2-7)	SS (SS indicates solubility ≥ 1mg/ml)	SS (SS indicates solubility ≥ 1mg/ml)	SS (SS indicates solubility ≥ 1mg/ml)	SS (SS indicates solubility ≥ 1mg/ml)	SS (SS indicates solubility ≥ 1mg/ml)	SS (SS indicates solubility ≥ 1mg/ml)	SS (SS indicates solubility ≥ 1mg/ml)	0.16 nM
0.17 nM	CC[C@H](C)[C@@H](C(=O)N[C@@H](CC(C)C)C(=O)N[C@@H](CO)C(=O)N[C@@H](CO)C(=O)N[C@H](C(=O)N[C@@H](CC(N)=O)C(=O)N[C@H](C(=O)NCC(=O)N[C@@H](CO)C(=O)N[C@@H](CC(N)=O)C(=O)N[C@H](C(=O)N1CCC[C@H]1C(N)=O)[C@@H](C)O)C(C)C)[C@@H](C)O)N(C)C(=O)CN(C)C(=O)[C@H](Cc1ccccc1)NC(=O)[C@@H](CC(N)=O)NC(=O)[C@H](CC(N)=O)NC(=O)[C@H](CO)NC(=O)[C@H](CO)NC(=O)[C@H](Cc1c[nH]cn1)NC(=O)[C@H](Cc1c[nH]cn1)NC(=O)[C@H](CC(C)C)NC(=O)[C@H](Cc1ccccc1)NC(=O)[C@H](CCC(=O)O)NC(=O)[C@H](C)NC(=O)[C@H](CC(C)C)NC(=O)[C@H](CCCNC(=N)N)NC(=O)[C@H](CCC(N)=O)NC(=O)[C@@H](NC(=O)[C@H](C)NC(=O)[C@@H]1CSSC[C@H](NC(=O)[C@H](CCCNC(=N)N)NC(=O)CC[C@H](NC(=O)CCCCCCCCCCCCCCCCCCC(=O)O)C(=O)O)C(=O)N[C@@H](CC(N)=O)C(=O)N[C@@H]([C@@H](C)O)C(=O)N[C@@H](C)C(=O)N[C@@H]([C@@H](C)O)C(=O)N1)[C@@H](C)O [Compound 36, [19CD]-isoGlu-RC()NTATC()ATQRLAEFLHHSSN-DAsn-F-Gly(Me)-Ile(Me)-LSSTNVGSNTP-NH2] ({C20 diacid-γGlu}-RCNTATCATQRLAEFLHHSSN[dN]F[Sar][NMeI]LSSTNVGSNTP-NH2; disulfide 2-7)	SS (SS indicates solubility ≥ 1mg/ml)	SS (SS indicates solubility ≥ 1mg/ml)	SS (SS indicates solubility ≥ 1mg/ml)	SS (SS indicates solubility ≥ 1mg/ml)	SS (SS indicates solubility ≥ 1mg/ml)	SS (SS indicates solubility ≥ 1mg/ml)	SS (SS indicates solubility ≥ 1mg/ml)	
